Assay results as given in paper PMC6996298 (Frontiers in Plant Science, 2020).

T1: VvSWEET7 (Vitis vinifera, UniProt A0ACM8QLM4)
T1 construct: gene VIT_02s0025g02080; full-length cDNA in pYES-DEST52 (GAL1 promoter), expressed in hxt-null S. cerevisiae EBY.VW4000
T1 sequence (A0ACM8QLM4 1-260): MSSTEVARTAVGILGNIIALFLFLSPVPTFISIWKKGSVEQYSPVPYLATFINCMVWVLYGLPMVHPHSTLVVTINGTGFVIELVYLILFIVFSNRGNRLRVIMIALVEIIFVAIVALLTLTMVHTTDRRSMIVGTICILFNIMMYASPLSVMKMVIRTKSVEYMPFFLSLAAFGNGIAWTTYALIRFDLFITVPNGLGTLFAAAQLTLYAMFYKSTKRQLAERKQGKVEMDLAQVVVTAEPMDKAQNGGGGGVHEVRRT

B1: VvSWEET7 (Vitis vinifera) (protein)
chain: T1 sequence (A0ACM8QLM4 1-260)
notes: full-length cDNA in pYES-DEST52 (GAL1 promoter), expressed in hxt-null S. cerevisiae EBY.VW4000

How the values were obtained:
[1] = target: T1, VvSWEET7; assay: inhibition of D-[…]-glucose uptake in yeast EBY.VW4000; type: cell-based; conditions: read-out: % inhibition at 500 mM
[2] = substrate: OC[C@H]1O[C@@](CO)(O[C@H]2O[C@H](CO)[C@@H](O)[C@H](O)[C@H]2O)[C@@H](O)[C@@H]1O; assay: initial uptake of radiolabelled sugar in yeast EBY.VW4000, Michaelis-Menten; type: cell-based, Vitis vinifera; conditions: labelled compound, 7.5-125 mM, KH2PO4 pH 5.0, 30 °C, 3 min

| Molecule | inhibition at 500000 µM [1] [%] | Km [2] [mM] |
| --- | --- | --- |
| OCC1(O)OC[C@@H](O)[C@@H](O)[C@@H]1O (some centres unmarked) [fructose] | 79 | – |
| OC[C@H]1OC(O)[C@H](O)[C@@H](O)[C@H]1O (some centres unmarked) [galactose] | 56 | – |
| OC[C@@H](O)[C@@H](O)[C@H](O)[C@H](O)CO [mannitol] | 29 | – |
| OC[C@@H](O)[C@@H](O)[C@H](O)[C@@H](O)CO [sorbitol] | 38 | – |
| B1 | – | 40.08 |
